US11236354B2, “Glyphosate-n-acetyltransferase (GLYAT) sequences and methods of use” (PIONEER HI-BRED INTERNATIONAL, INC., priority 2013, dated 2022)

Experiments:
Assay in all cases: Substrate saturation kinetic analysis of purified GLYAT
[1] = target: GLYAT (glyphosate-N-acetyltransferase), parent of saturation mutagenesis (already fit protein), SEQ ID NO:26 (derived from SEQ ID NO:1 and 2) (Bacillus licheniformis, UniProt Q65LG7, A28V/C29I/D131E/E14D/E65Q/E67K/E68K/E83D/G37R/I132T/I135A/I15L/I19V/I53V/I91V/K101R/K144R/K58Q/L105M/L26I/L97I/M75V/R47G/R92K/T89S/V114A/Y130F/Y45F); assay type: biochemical
Description: (§1) E. coli cultures in LB or 2×YT were grown overnight at 37° C. to saturation. The cells were used as a 2% inoculum into fresh media. When OD reached 0.6, IPTG was added to 0.2 mM and growth was continued for at least 6 hours. Cells were harvested by centrifugation and stored at −80° C. Cells were lysed with BPER (Pierce) containing 1 mM dithiothreitol, 0.2 mg/ml lysozyme, 2 mg/ml protease inhibitor cocktail (Sigma bacterial cell cocktail, P8465) and endonuclease. Lysate supernatants were passed through a column of NHS-activated Agarose (Thermo, #26197) derivatized with coenzyme A. Columns were washed with 25 mM Hepes, pH 7, containing progressively higher concentrations of KCl, then eluted with 25 mM Hepes, 100 mM KCl, 10% ethylene glycol and 1 mM acetyl CoA. Purity as evaluated by polyacrylamide gel electrophoresis was deemed consistently high enough to be assumed to be 100%. Protein concentration was determined with the Bradford assay using a large-scale lot of produced GLYAT protein as standard.
Kinetic parameters for various substrates were obtained using a range of seven substrate concentrations plus a blank containing none of the varied substrate. The non-varied substrate was present at a saturating concentration. Six-microliter aliquots of 50-fold concentrated stock solutions of the varied substrate were placed in a 96-well assay plate (Greiner BioOne UV-Star). Reactions were started with the addition of 294 ul of 25 mM Hepes, pH 7.0, 100 mM KCL, 10% ethylene glycol, the non-varied substrate and 10 to 200 nM enzyme. Absorbance was monitored for one minute with a Spectramax 384 Plus plate reader (Molecular Devices). If the amino acid present at position 30 (29 if alanine is absent at position 2) was cysteine, absorbance was monitored at 235 nm, which directly detects cleavage of the sulfoester bond of acetyl CoA. If the amino acid present at position 30 (29 if alanine is absent at position 2) was isoleucine, 0.5 mM 5,5′-dithiobis-(2-nitrobenzoic acid), which reacts with the coenzyme A thiol generated in the enzyme catalyzed reaction, was included in the reaction mix and absorbance was monitored at 412 nm. Initial rates were processed by the Softmax software to obtain kinetic parameters, using the double-reciprocal transformation.
The sequences with the new substitutions were derived through a combination of saturation mutagenesis of an already fit protein (SEQ ID NO:26) and an effective screening cascade as a means of identifying the improved genes (Examples 1-2). Regions in which novel changes are concentrated include helix H2a (positions 23 and 25-29) and the hairpin formed by strands B6 and B7 (positions 124-144). These two structures are components of the amino substrate binding site. Helix H3, the backbone to which the central beta sheet is anchored, is a region where 24% of the novel substitutions (17 out of 71) disclosed in Table 4 are concentrated into 11% of the positions (16 out of 146). None of those are near enough to the active site to influence substrate specificity directly. In three cases, multiple novel substitutions were discovered immediately or nearly adjacent to conserved amino acids shown previously to contribute to the catalytic mechanism (Siehl D L et. al., J Biol Chem, 282:11446, 2007). The catalytic amino acids for which this is the case are R21, R111, H138 and the nearby positions with multiple substitutions are 23, 112 and 137. The diverse amino acids at these positions may influence the orientation of the neighboring catalytic amino acids so as to selectively optimize catalysis with the preferred substrate, glyphosate.

[2] = target: GLYAT variant SEQ ID NO:9 (derived from SEQ ID NO:1 and 2) (Bacillus licheniformis, UniProt Q65LG7, A28V/D131E/E119K/E14D/E65Q/E67K/E68K/G37R/G38S/I132T/I135A/I15L/I19V/I53V/I91V/K101R/K144R/K58Q/L105M/L26I/L97I/M75V/R47G/R92K/T89S/V114A/Y130F/Y45F); settings: pH 7.0
[3] = target: GLYAT variant SEQ ID NO:8 (derived from SEQ ID NO:1 and 2) (Bacillus licheniformis, UniProt Q65LG7, A28V/D131E/E119K/E14D/E65Q/E67K/E68K/E83D/G37R/G38S/I132T/I135A/I15L/I53V/I91V/K101R/K144R/K58Q/L105M/L106I/L26I/L36T/L97I/M75V/N8S/R47G/R92K/T89S/V114A/Y130F/Y45F); settings: pH 7.0
[4] = target: GLYAT variant SEQ ID NO:10 (derived from SEQ ID NO:1 and 2) (Bacillus licheniformis, UniProt Q65LG7, A28V/D131E/E14D/E65Q/E67K/E68K/G37R/G38S/H61R/I132T/I135A/I15L/I19V/I53V/I91V/K101R/K144R/K58Q/L105M/L106I/L26I/L97I/M75V/R47G/R92K/T89S/V114A/Y130F/Y45F); settings: pH 7.0
[5] = target: GLYAT high specificity variant SEQ ID NO:29 (derived from SEQ ID NO:1 and 2; C29I, F31Y; motif VIMYETDLL, SEQ ID NO:174) (Bacillus licheniformis, UniProt Q65LG7); assay type: biochemical
Description: as §1, with “Lysate supernatants were passed through a column of NHS-activated Agarose (Thermo, #26197) derivatized with coenzyme A. Columns were washed with 25 mM Hepes, pH 7, containing progressively higher concentrations of KCl, then eluted with 25 mM Hepes, 100 mM KCl, 10% ethylene glycol and 1 mM acetyl CoA.” left out
Kinetic parameters for various substrates were obtained using a range of seven substrate concentrations plus a blank containing none of the varied substrate. […] Absorbance was monitored for one minute with a Spectramax 384 Plus plate reader (Molecular Devices). If the amino acid present at position 30 (29 if alanine is absent at position 2) was cysteine, absorbance was monitored at 235 nm, which directly detects cleavage of the sulfoester bond of acetyl CoA. […]

[6] = pH 7.0, non-varied substrate saturating

Structure (SMILES): N[C@@H](CC(=O)O)C(=O)O [aspartate]
- Asp as % of glyph (kcat/KM asp / kcat/KM glyph) ([1]; pH 7.0): 0.038%
- kcat (aspartate) [1, 6]: 1.5 s⁻¹
- kcat/KM (aspartate) [1, 6]: 16 M⁻¹ s⁻¹
- Asp as % of glyph (kcat/KM asp / kcat/KM glyph) [2]: 0.073%
- Asp as % of glyph (kcat/KM asp / kcat/KM glyph) [3]: 0.079%
- Asp as % of glyph (kcat/KM asp / kcat/KM glyph) [4]: 0.091%
- activity with aspartate (kcat/Km) ([5]; 25 mM Hepes, pH 7.0): 8 M⁻¹ s⁻¹
- kcat/Km asp, % glyph ([5]; Table 5, ratio of kcat/Km asp to kcat/Km glyph): 0.013%
